This note sets out measurements from patent US8633183B2 (priority 2010, dated 2014).

Chain of PI3Kalpha (P42336 whole entry, looked up): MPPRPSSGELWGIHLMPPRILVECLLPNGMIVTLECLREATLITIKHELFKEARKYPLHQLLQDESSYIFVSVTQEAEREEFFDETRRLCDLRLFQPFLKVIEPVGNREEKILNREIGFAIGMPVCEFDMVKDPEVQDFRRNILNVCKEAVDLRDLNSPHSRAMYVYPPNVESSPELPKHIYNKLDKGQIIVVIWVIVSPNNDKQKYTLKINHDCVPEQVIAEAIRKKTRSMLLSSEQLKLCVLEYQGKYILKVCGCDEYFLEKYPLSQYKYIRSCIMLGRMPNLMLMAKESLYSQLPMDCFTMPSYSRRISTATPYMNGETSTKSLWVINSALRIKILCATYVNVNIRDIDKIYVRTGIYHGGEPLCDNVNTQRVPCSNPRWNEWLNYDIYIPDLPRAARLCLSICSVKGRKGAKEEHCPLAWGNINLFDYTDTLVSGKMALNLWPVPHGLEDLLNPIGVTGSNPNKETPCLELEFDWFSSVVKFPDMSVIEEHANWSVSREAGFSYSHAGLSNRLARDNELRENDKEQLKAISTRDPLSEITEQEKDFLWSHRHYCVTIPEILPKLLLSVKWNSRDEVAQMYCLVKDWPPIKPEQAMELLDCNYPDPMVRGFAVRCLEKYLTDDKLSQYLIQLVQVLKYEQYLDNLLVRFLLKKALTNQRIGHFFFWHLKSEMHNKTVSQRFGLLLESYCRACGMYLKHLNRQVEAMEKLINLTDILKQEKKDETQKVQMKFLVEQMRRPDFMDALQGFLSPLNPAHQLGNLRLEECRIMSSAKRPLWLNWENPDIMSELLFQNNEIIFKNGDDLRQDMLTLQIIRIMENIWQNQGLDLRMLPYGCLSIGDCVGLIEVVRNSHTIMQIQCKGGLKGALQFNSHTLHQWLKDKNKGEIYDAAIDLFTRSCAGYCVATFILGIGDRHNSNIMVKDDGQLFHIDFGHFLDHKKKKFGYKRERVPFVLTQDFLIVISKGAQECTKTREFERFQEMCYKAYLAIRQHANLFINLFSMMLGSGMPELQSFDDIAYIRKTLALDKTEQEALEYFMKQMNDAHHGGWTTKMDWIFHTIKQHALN

This assay has as its target PI3Kalpha (Homo sapiens (Human), UniProt P42336). To be noted: read-out: IC50 PI3K.
What is called IC50 is the concentration needed to halve the response being measured. On to `CCc1ncnc(-c2ccc(C(=O)N3CCn4cnnc4C3)c(Cl)c2)c1C#Cc1ccc(N)nc1` [Example E-255], for which the IC50 was 4.83 nM.
As for `CCc1ncnc(-c2ccc(C(=O)N3CCn4ccnc4C3)c(Cl)c2)c1C#Cc1ccc(N)nc1` [Example E-256], the IC50 came to 23 nM.
Then `CCc1ncnc(-c2ccc(C(=O)N3CCN(CCCS(C)(=O)=O)CC3)c(Cl)c2)c1C#Cc1ccc(N)nc1` [Example E-257], with 58.3 nM; and `CCNc1ccc(C#Cc2c(CC)ncnc2-c2ccc(C(=O)N3CCN(CCCS(C)(=O)=O)CC3)c(F)c2)cn1` [Example E-258], with 110 nM; and `CCNc1ccc(C#Cc2c(CC)ncnc2-c2ccc(C(=O)N3CCC(N4CCOCC4)CC3)c(F)c2)cn1` [Example E-259], with 209 nM.
As for `CCNc1ccc(C#Cc2c(CC)ncnc2-c2ccc(C(=O)N3CCn4ccnc4C3)c(F)c2)cn1` [Example E-260], the IC50 came out at 63.8 nM.
On to `CCNc1ccc(C#Cc2c(CC)ncnc2-c2ccc(C(=O)N3CCn4cnnc4C3)c(F)c2)cn1` [Example E-261], for which the IC50 was determined as 44.3 nM.
Turning to `CCNc1ccc(C#Cc2c(CC)ncnc2-c2ccc(C(=O)N3CCn4c(C)cnc4C3)c(F)c2)cn1` [Example E-262], the IC50 was 134 nM.
Then `CCNc1ccc(C#Cc2c(CC)ncnc2-c2ccc(C(=O)N3CCC4(CC3)COC4)c(F)c2)cn1` [Example E-263], with 204 nM; and `CCNc1ccc(C#Cc2c(CC)ncnc2-c2ccc(C(=O)N3CCC4(CC3)CN(C(=O)OC(C)(C)C)C4)c(F)c2)cn1` [Example E-266], with 560 nM; and `CCNc1ccc(C#Cc2c(CC)ncnc2-c2ccc(C(=O)N3CC4(CN(C(=O)OC(C)(C)C)C4)C3)c(F)c2)cn1` [Example E-267], with 421 nM.
Next, `CCc1ncnc(-c2ccc(C(=O)N3CCC4(CC3)CNC4)c(F)c2)c1C#Cc1ccc(N)nc1` [Example E-268]: 242 nM; `CCc1ncnc(-c2ccc(C(=O)N3CC4(CNC4)C3)c(F)c2)c1C#Cc1ccc(N)nc1` [Example E-269]: 252 nM; `CCc1ncnc(-c2ccc(C(=O)N3CC4(CNC4)C3)c(Cl)c2)c1C#Cc1ccc(N)nc1` [Example E-270]: 328 nM.
As to `CCc1ncnc(-c2ccc(C(=O)N3CCN(C4COC4)CC3)c(F)c2)c1C#Cc1ccc(N)nc1` [Example E-271], the IC50 was 113 nM.
Next, `CCc1ncnc(-c2ccc(C(=O)N3CCC(CN(C)C)CC3)c(F)c2)c1C#Cc1ccc(N)nc1` [Example E-272]: 475 nM; `CCc1ncnc(-c2ccc(C(=O)N3CCN(C4COC4)CC3)c(Cl)c2)c1C#Cc1ccc(N)nc1` [Example E-273]: 119 nM; `CCc1ncnc(-c2ccc(C(=O)N3CCC(CN(C)C)CC3)c(Cl)c2)c1C#Cc1ccc(N)nc1` [Example E-274]: 445 nM.
Next, `CCc1ncnc(-c2cc(F)c(C(=O)N3CCN(C4COC4)CC3)c(F)c2)c1C#Cc1ccc(N)nc1` [Example E-275]: 141 nM; `CCc1ncnc(-c2ccc(C(=O)N3CCN(C4COC4)CC3)c(F)c2)c1C#Cc1ccc(N)nc1C` [Example E-280]: 153 nM.
For `CCc1ncnc(-c2ccc(C(=O)N3CCC(CN(C)C)CC3)c(F)c2)c1C#Cc1ccc(N)nc1C` [Example E-281], the IC50 amounted to 679 nM.
Consider `CCc1ncnc(-c2cc(F)c(C(=O)N3CCN(C4COC4)CC3)c(Cl)c2)c1C#Cc1ccc(N)nc1` [Example E-282], for which the IC50 amounted to 173 nM.
On to `CCc1ncnc(-c2cc(F)c(C(=O)N3CCC(CN(C)C)CC3)c(Cl)c2)c1C#Cc1ccc(N)nc1` [Example E-283], for which the IC50 was determined as 446 nM.
Then `CCc1ncnc(-c2ccc(C(=O)N3CCN(CCN)CC3)c(Cl)c2)c1C#Cc1ccc(N)nc1` [Example E-284], with 181 nM; and `CCc1ncnc(-c2cc(F)c(C(=O)N3CCC(CN)CC3)c(Cl)c2)c1C#Cc1ccc(N)nc1` [Example E-285], with 647 nM.
`CCc1ncnc(-c2cc(F)c(C(=O)N3CCN(CCN)CC3)c(Cl)c2)c1C#Cc1ccc(N)nc1` [Example E-286]: the IC50 turned out to be 527 nM.
Consider `CCc1ncnc(-c2ccc(C(=O)N3CC4(CN(C)C4)C3)c(F)c2)c1C#Cc1ccc(N)nc1` [Example E-287], for which the IC50 was found to be 288 nM.
Then `CCc1ncnc(-c2cc(F)c(C(=O)N3CC4(CN(C)C4)C3)c(Cl)c2)c1C#Cc1ccc(N)nc1` [Example E-289], with 298 nM; and `CCc1ncnc(-c2ccc(C(=O)N3CCN(Cc4cc(C)no4)CC3)c(F)c2)c1C#Cc1ccc(N)nc1` [Example E-290], with 200 nM; and `CCc1ncnc(-c2ccc(C(=O)N3CCN(C(C)COC)CC3)c(F)c2)c1C#Cc1ccc(N)nc1` (stereo not shown) [Example E-291], with 220 nM.
Then `CCc1ncnc(-c2ccc(C(=O)N3CCN(C(C)CO)CC3)c(F)c2)c1C#Cc1ccc(N)nc1` (stereo not shown) [Example E-292], with 212 nM.
For the compound `CCc1ncnc(-c2ccc(C(=O)N3CCN(C4CCCC4O)CC3)c(F)c2)c1C#Cc1ccc(N)nc1` (stereo not shown) [Example E-294], the IC50 was 137 nM.
Next, `CCc1ncnc(-c2ccc(C(=O)N3CCN(CC(C)O)CC3)c(F)c2)c1C#Cc1ccc(N)nc1` (stereo not shown) [Example E-296]: 122 nM; `CCc1ncnc(-c2cc(F)c(C(=O)N3CCN(C(C)COC)CC3)c(F)c2)c1C#Cc1ccc(N)nc1` (stereo not shown) [Example E-298]: 187 nM; `CCc1ncnc(-c2cc(F)c(C(=O)N3CCN(C(C)CO)CC3)c(F)c2)c1C#Cc1ccc(N)nc1` (stereo not shown) [Example E-299]: 160 nM.
Then `CCc1ncnc(-c2cc(F)c(C(=O)N3CCN(Cc4nc(C)c(C)o4)CC3)c(F)c2)c1C#Cc1ccc(N)nc1` [Example E-300], with 783 nM; and `CCc1ncnc(-c2cc(F)c(C(=O)N3CCN(C4CCCC4O)CC3)c(F)c2)c1C#Cc1ccc(N)nc1` (stereo not shown) [Example E-301], with 106 nM; and `CCc1ncnc(-c2cc(F)c(C(=O)N3CCN(CCOCCO)CC3)c(F)c2)c1C#Cc1ccc(N)nc1` [Example E-302], with 113 nM.
Regarding `CCc1ncnc(-c2cc(F)c(C(=O)N3CCN(Cc4cc(C)no4)CC3)c(Cl)c2)c1C#Cc1ccc(N)nc1` [Example E-304], the IC50 was 108 nM.
Then `CCc1ncnc(-c2cc(F)c(C(=O)N3CCN(C(C)COC)CC3)c(Cl)c2)c1C#Cc1ccc(N)nc1` (stereo not shown) [Example E-305], with 110 nM; and `CCc1ncnc(-c2cc(F)c(C(=O)N3CCN(C(C)CO)CC3)c(Cl)c2)c1C#Cc1ccc(N)nc1` (stereo not shown) [Example E-306], with 108 nM; and `CCc1ncnc(-c2cc(F)c(C(=O)N3CCN(Cc4nc(C)c(C)o4)CC3)c(Cl)c2)c1C#Cc1ccc(N)nc1` [Example E-307], with 193 nM.
Then `CCc1ncnc(-c2cc(F)c(C(=O)N3CCN(C4CCCC4O)CC3)c(Cl)c2)c1C#Cc1ccc(N)nc1` (stereo not shown) [Example E-308], with 63.4 nM.
Next, `CCc1ncnc(-c2cc(F)c(C(=O)N3CCN(CC(C)O)CC3)c(Cl)c2)c1C#Cc1ccc(N)nc1` (stereo not shown) [Example E-309]: 239 nM; `CCc1ncnc(-c2cc(F)c(C(=O)N3CCN(CCOCCO)CC3)c(Cl)c2)c1C#Cc1ccc(N)nc1` [Example E-310]: 86 nM; `CCc1ncnc(-c2cc(F)c(C(=O)N3CCC4(CC3)CC(=O)CO4)c(Cl)c2)c1C#Cc1ccc(N)nc1` [Example E-311]: 69.1 nM.
